± gives the expanded uncertainty stated by the source.
Experiment: molar heat capacity at constant pressure
Conditions: 101.33 kPa, Crystal, Vacuum adiabatic calorimetry

SMILES: O=C(CO)[C@H](O)[C@H](O)[C@H](O)CO [D-psicose]
- molar heat capacity at constant pressure (123.06 K): 95.25 ± 0.97 J/K/mol
- molar heat capacity at constant pressure (123.75 K): 95.92 ± 0.98 J/K/mol
- molar heat capacity at constant pressure (124.29 K): 96.23 ± 0.98 J/K/mol
- molar heat capacity at constant pressure (124.5 K): 96.3 ± 0.99 J/K/mol
- molar heat capacity at constant pressure (125.14 K): 96.92 ± 0.99 J/K/mol
- molar heat capacity at constant pressure (125.8 K): 97.36 ± 1 J/K/mol
- molar heat capacity at constant pressure (125.92 K): 97.34 ± 1 J/K/mol
- molar heat capacity at constant pressure (126.54 K): 97.93 ± 1 J/K/mol
- molar heat capacity at constant pressure (127.3 K): 98.49 ± 1 J/K/mol
- molar heat capacity at constant pressure (127.33 K): 98.38 ± 1 J/K/mol
- molar heat capacity at constant pressure (127.93 K): 98.98 ± 1 J/K/mol
- molar heat capacity at constant pressure (128.73 K): 99.42 ± 1 J/K/mol
- molar heat capacity at constant pressure (128.78 K): 99.54 ± 1 J/K/mol
- molar heat capacity at constant pressure (129.31 K): 99.93 ± 1 J/K/mol
- molar heat capacity at constant pressure (130 K): 100.42 ± 1 J/K/mol
- molar heat capacity at constant pressure (130.16 K): 100.47 ± 1 J/K/mol
- molar heat capacity at constant pressure (130.29 K): 100.63 ± 1 J/K/mol
- molar heat capacity at constant pressure (130.71 K): 100.99 ± 1 J/K/mol
- molar heat capacity at constant pressure (131.62 K): 101.53 ± 1 J/K/mol
- molar heat capacity at constant pressure (131.84 K): 101.76 ± 1 J/K/mol
- molar heat capacity at constant pressure (132.14 K): 102.08 ± 1 J/K/mol
- molar heat capacity at constant pressure (133.07 K): 102.57 ± 1.1 J/K/mol
- molar heat capacity at constant pressure (133.37 K): 102.87 ± 1.1 J/K/mol
- molar heat capacity at constant pressure (133.59 K): 103.04 ± 1.1 J/K/mol
- molar heat capacity at constant pressure (134.51 K): 103.62 ± 1.1 J/K/mol
- molar heat capacity at constant pressure (134.89 K): 103.97 ± 1.1 J/K/mol
- molar heat capacity at constant pressure (135.06 K): 104.17 ± 1.1 J/K/mol
- molar heat capacity at constant pressure (135.94 K): 104.68 ± 1.1 J/K/mol
- molar heat capacity at constant pressure (136.44 K): 105.12 ± 1.1 J/K/mol
- molar heat capacity at constant pressure (136.51 K): 105.24 ± 1.1 J/K/mol
- molar heat capacity at constant pressure (137.4 K): 105.69 ± 1.1 J/K/mol
- molar heat capacity at constant pressure (137.99 K): 106.23 ± 1.1 J/K/mol
- molar heat capacity at constant pressure (138.07 K): 106.25 ± 1.1 J/K/mol
- molar heat capacity at constant pressure (138.89 K): 106.78 ± 1.1 J/K/mol
- molar heat capacity at constant pressure (139.5 K): 107.37 ± 1.1 J/K/mol
- molar heat capacity at constant pressure (139.73 K): 107.46 ± 1.1 J/K/mol
- molar heat capacity at constant pressure (140 K): 107.65 ± 1.1 J/K/mol
- molar heat capacity at constant pressure (140.36 K): 107.86 ± 1.1 J/K/mol
- molar heat capacity at constant pressure (141 K): 108.43 ± 1.1 J/K/mol
- molar heat capacity at constant pressure (141.38 K): 108.63 ± 1.1 J/K/mol
- molar heat capacity at constant pressure (141.83 K): 108.94 ± 1.1 J/K/mol
- molar heat capacity at constant pressure (142.49 K): 109.66 ± 1.1 J/K/mol
- molar heat capacity at constant pressure (143.02 K): 109.81 ± 1.1 J/K/mol
- molar heat capacity at constant pressure (143.29 K): 109.97 ± 1.1 J/K/mol
- molar heat capacity at constant pressure (143.97 K): 110.56 ± 1.1 J/K/mol
- molar heat capacity at constant pressure (144.64 K): 111.02 ± 1.1 J/K/mol
- molar heat capacity at constant pressure (144.78 K): 111.03 ± 1.1 J/K/mol
- molar heat capacity at constant pressure (145.47 K): 111.62 ± 1.1 J/K/mol
- molar heat capacity at constant pressure (146.29 K): 112.11 ± 1.1 J/K/mol
- molar heat capacity at constant pressure (146.3 K): 112.15 ± 1.1 J/K/mol
- molar heat capacity at constant pressure (147.05 K): 112.77 ± 1.1 J/K/mol
- molar heat capacity at constant pressure (147.84 K): 113.18 ± 1.1 J/K/mol
- molar heat capacity at constant pressure (147.99 K): 113.34 ± 1.1 J/K/mol
- molar heat capacity at constant pressure (148.65 K): 113.9 ± 1.2 J/K/mol
- molar heat capacity at constant pressure (149.42 K): 114.29 ± 1.2 J/K/mol
- molar heat capacity at constant pressure (149.66 K): 114.52 ± 1.2 J/K/mol
- molar heat capacity at constant pressure (150 K): 114.81 ± 1.2 J/K/mol
- molar heat capacity at constant pressure (150.25 K): 115.05 ± 1.2 J/K/mol
- molar heat capacity at constant pressure (150.99 K): 115.45 ± 1.2 J/K/mol
- molar heat capacity at constant pressure (151.33 K): 115.73 ± 1.2 J/K/mol
- molar heat capacity at constant pressure (151.83 K): 116.23 ± 1.2 J/K/mol
- molar heat capacity at constant pressure (152.59 K): 116.62 ± 1.2 J/K/mol
- molar heat capacity at constant pressure (152.98 K): 116.92 ± 1.2 J/K/mol
- molar heat capacity at constant pressure (153.45 K): 117.32 ± 1.2 J/K/mol
- molar heat capacity at constant pressure (154.22 K): 117.72 ± 1.2 J/K/mol
- molar heat capacity at constant pressure (154.66 K): 118.11 ± 1.2 J/K/mol
- molar heat capacity at constant pressure (155.09 K): 118.5 ± 1.2 J/K/mol
- molar heat capacity at constant pressure (155.87 K): 118.94 ± 1.2 J/K/mol
- molar heat capacity at constant pressure (156.38 K): 119.3 ± 1.2 J/K/mol
- molar heat capacity at constant pressure (156.72 K): 119.64 ± 1.2 J/K/mol
- molar heat capacity at constant pressure (157.54 K): 120.08 ± 1.2 J/K/mol
- molar heat capacity at constant pressure (158.08 K): 120.68 ± 1.2 J/K/mol
- molar heat capacity at constant pressure (158.34 K): 120.83 ± 1.2 J/K/mol
- molar heat capacity at constant pressure (159.19 K): 121.26 ± 1.2 J/K/mol
- molar heat capacity at constant pressure (159.8 K): 121.76 ± 1.2 J/K/mol
- molar heat capacity at constant pressure (159.95 K): 121.9 ± 1.2 J/K/mol
- molar heat capacity at constant pressure (160 K): 121.93 ± 1.2 J/K/mol
- molar heat capacity at constant pressure (160.88 K): 122.45 ± 1.2 J/K/mol
- molar heat capacity at constant pressure (161.55 K): 122.94 ± 1.2 J/K/mol
- molar heat capacity at constant pressure (161.59 K): 123.12 ± 1.2 J/K/mol
- molar heat capacity at constant pressure (162.65 K): 123.73 ± 1.3 J/K/mol
- molar heat capacity at constant pressure (163.25 K): 124.33 ± 1.3 J/K/mol
- molar heat capacity at constant pressure (163.33 K): 124.2 ± 1.3 J/K/mol
- molar heat capacity at constant pressure (164.46 K): 125 ± 1.3 J/K/mol
- molar heat capacity at constant pressure (164.91 K): 125.57 ± 1.3 J/K/mol
- molar heat capacity at constant pressure (165.14 K): 125.56 ± 1.3 J/K/mol
- molar heat capacity at constant pressure (166.25 K): 126.31 ± 1.3 J/K/mol
- molar heat capacity at constant pressure (166.6 K): 126.8 ± 1.3 J/K/mol
- molar heat capacity at constant pressure (166.94 K): 126.82 ± 1.3 J/K/mol
- molar heat capacity at constant pressure (168.04 K): 127.62 ± 1.3 J/K/mol
- molar heat capacity at constant pressure (168.33 K): 127.92 ± 1.3 J/K/mol
- molar heat capacity at constant pressure (168.72 K): 128.08 ± 1.3 J/K/mol
- molar heat capacity at constant pressure (169.85 K): 128.88 ± 1.3 J/K/mol
- molar heat capacity at constant pressure (170 K): 129.01 ± 1.3 J/K/mol
- molar heat capacity at constant pressure (170.09 K): 129.15 ± 1.3 J/K/mol
- molar heat capacity at constant pressure (170.5 K): 129.38 ± 1.3 J/K/mol
- molar heat capacity at constant pressure (171.7 K): 130.21 ± 1.3 J/K/mol
- molar heat capacity at constant pressure (171.88 K): 130.42 ± 1.3 J/K/mol
- molar heat capacity at constant pressure (172.31 K): 130.62 ± 1.3 J/K/mol
- molar heat capacity at constant pressure (173.54 K): 131.46 ± 1.3 J/K/mol
- molar heat capacity at constant pressure (173.65 K): 131.69 ± 1.3 J/K/mol
- molar heat capacity at constant pressure (174.14 K): 131.92 ± 1.3 J/K/mol
- molar heat capacity at constant pressure (175.36 K): 132.69 ± 1.4 J/K/mol
- molar heat capacity at constant pressure (175.42 K): 132.94 ± 1.4 J/K/mol
- molar heat capacity at constant pressure (175.97 K): 133.17 ± 1.4 J/K/mol
- molar heat capacity at constant pressure (177.18 K): 134.01 ± 1.4 J/K/mol
- molar heat capacity at constant pressure (177.23 K): 134.2 ± 1.4 J/K/mol
- molar heat capacity at constant pressure (177.78 K): 134.49 ± 1.4 J/K/mol
- molar heat capacity at constant pressure (179.06 K): 135.42 ± 1.4 J/K/mol
- molar heat capacity at constant pressure (179.11 K): 135.51 ± 1.4 J/K/mol
- molar heat capacity at constant pressure (179.59 K): 135.75 ± 1.4 J/K/mol
- molar heat capacity at constant pressure (180 K): 136.08 ± 1.4 J/K/mol
- molar heat capacity at constant pressure (181.01 K): 136.76 ± 1.4 J/K/mol
- molar heat capacity at constant pressure (181.03 K): 136.92 ± 1.4 J/K/mol
- molar heat capacity at constant pressure (181.46 K): 137.08 ± 1.4 J/K/mol
- molar heat capacity at constant pressure (182.93 K): 138.2 ± 1.4 J/K/mol
- molar heat capacity at constant pressure (182.95 K): 138.09 ± 1.4 J/K/mol
- molar heat capacity at constant pressure (183.4 K): 138.47 ± 1.4 J/K/mol
- molar heat capacity at constant pressure (184.83 K): 139.53 ± 1.4 J/K/mol
- molar heat capacity at constant pressure (184.88 K): 139.49 ± 1.4 J/K/mol
- molar heat capacity at constant pressure (185.32 K): 139.84 ± 1.4 J/K/mol
- molar heat capacity at constant pressure (186.71 K): 140.84 ± 1.4 J/K/mol
- molar heat capacity at constant pressure (186.79 K): 140.88 ± 1.4 J/K/mol
- molar heat capacity at constant pressure (187.28 K): 141.21 ± 1.4 J/K/mol
- molar heat capacity at constant pressure (188.62 K): 142.21 ± 1.4 J/K/mol
- molar heat capacity at constant pressure (188.74 K): 142.23 ± 1.4 J/K/mol
- molar heat capacity at constant pressure (189.26 K): 142.58 ± 1.4 J/K/mol
- molar heat capacity at constant pressure (190 K): 143.15 ± 1.4 J/K/mol
- molar heat capacity at constant pressure (190.56 K): 143.63 ± 1.5 J/K/mol
- molar heat capacity at constant pressure (190.71 K): 143.67 ± 1.5 J/K/mol
- molar heat capacity at constant pressure (191.28 K): 144.05 ± 1.5 J/K/mol
- molar heat capacity at constant pressure (192.49 K): 144.97 ± 1.5 J/K/mol
- molar heat capacity at constant pressure (192.68 K): 145.06 ± 1.5 J/K/mol

— the NIST ThermoML archive (doi:10.1016/j.jct.2018.11.014)
